From PubChem BioAssay AID1845195 (Molecular Pharmacology Branch, DTP, NCI, 2023)
pIC50: −log10 of the molar value.

Test system: 156681-154-R-J1 tumor spheroid viability
Assay: Anticancer human tumor 156681-154-R-J1 patient-derived melanoma cell line growth inhibition
Conditions: spheroids with HUVEC and MSC; for pIC50: curve of first compound; for viability, T/C: stronger effect = lower value
In short: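 Complex tumor spheroids combined malignant cells with endothelial cells and mesenchymal stem cells. DNA-damaging drugs and DNA repair inhibitors were tested alone and in combination, at half-log dilutions down from clinical Cmax (top 10 microM if Cmax unknown), 0.25% DMSO final.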

[1] = second compound 30 pM, first compound 0.00949 µM
[2] = second compound 30 pM, first compound 0.03 µM
[3] = second compound 30 pM, first compound 0.0949 µM
[4] = second compound 30 pM, first compound 0.3 µM
[5] = second compound 30 pM, first compound 0.949 µM
[6] = second compound 30 pM, first compound 3 µM
[7] = second compound 94.9 pM, first compound 0.00949 µM
[8] = second compound 94.9 pM, first compound 0.03 µM
[9] = second compound 94.9 pM, first compound 0.0949 µM
[10] = second compound 94.9 pM, first compound 0.3 µM
[11] = second compound 94.9 pM, first compound 0.949 µM
[12] = second compound 94.9 pM, first compound 3 µM
[13] = second compound 0.0003 µM, first compound 0.00949 µM
[14] = second compound 0.0003 µM, first compound 0.03 µM
[15] = second compound 0.0003 µM, first compound 0.0949 µM
[16] = second compound 0.0003 µM, first compound 0.3 µM
[17] = second compound 0.0003 µM, first compound 0.949 µM
[18] = second compound 0.0003 µM, first compound 3 µM
[19] = second compound 0.000949 µM, first compound 0.00949 µM
[20] = second compound 0.000949 µM, first compound 0.03 µM
[21] = second compound 0.000949 µM, first compound 0.0949 µM
[22] = second compound 0.000949 µM, first compound 0.3 µM
[23] = second compound 0.000949 µM, first compound 0.949 µM
[24] = second compound 0.000949 µM, first compound 3 µM
[25] = second compound 0.003 µM, first compound 0.00949 µM
[26] = second compound 0.003 µM, first compound 0.03 µM
[27] = second compound 0.003 µM, first compound 0.0949 µM
[28] = second compound 0.003 µM, first compound 0.3 µM
[29] = second compound 0.003 µM, first compound 0.949 µM
[30] = second compound 0.003 µM, first compound 3 µM
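Also: spheroids exposed to compounds for 7 days before readout.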
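For viability, T/C in this document: percent of vehicle control viability where 100% = DMSO-treated spheroids.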

Row | SMILES | pIC50 (second compound 30 pM) | pIC50 (second compound 94.9 pM) | pIC50 (second compound 0.0003 µM) | pIC50 (second compound 0.000949 µM) | pIC50 (second compound 0.003 µM) | viability, T/C [1] | viability, T/C [2] | viability, T/C [3] | viability, T/C [4] | viability, T/C [5] | viability, T/C [6] | viability, T/C [7] | viability, T/C [8] | viability, T/C [9] | viability, T/C [10] | viability, T/C [11] | viability, T/C [12] | viability, T/C [13] | viability, T/C [14] | viability, T/C [15] | other results
1 | CNCc1ccc(-c2cc(-c3nc(-c4ccc(S(=O)(=O)C(C)C)cc4)cnc3N)on2)cc1 + COc1cc2c(cc1O)CCNC21CSC2c3c(OC(C)=O)c(C)c4c(c3C(COC1=O)N1C(O)C3Cc5cc(C)c(OC)c(O)c5C(C21)N3C)OCO4 | 5.95 | 6.06 | 6.24 | > 8.02 | > 8.02 | 119% | 103% | 99% | 85.2% | 53.5% | 17% | 112% | 113% | 101% | 77.1% | 49.3% | 2.05% | 90.6% | 100% | 90.4% | viability, T/C [16]: 69.1%; viability, T/C [17]: 35.4%; viability, T/C [18]: 1.71%; viability, T/C [19]: 3.5%; viability, T/C [20]: 5.91%; viability, T/C [21]: 4.37%; viability, T/C [22]: 3.55%; viability, T/C [23]: 1.04%; viability, T/C [24]: 0.15%; viability, T/C [25]: 0.16%; viability, T/C [26]: 0.17%; viability, T/C [27]: 0.17%; viability, T/C [28]: 0.12%; viability, T/C [29]: 0.12%; viability, T/C [30]: 0.24%
2 | Cc1sc2c(c1C)C(c1ccc(Cl)cc1)=NC(CC(=O)Nc1ccc(O)cc1)c1nnc(C)n1-2 (stereo not given) + COc1cc2c(cc1O)CCNC21CSC2c3c(OC(C)=O)c(C)c4c(c3C(COC1=O)N1C(O)C3Cc5cc(C)c(OC)c(O)c5C(C21)N3C)OCO4 | < 5.52 | 5.69 | 6.71 | > 8.02 | > 8.02 | 104% | 92.1% | 103% | 109% | 68.3% | 61.8% | 108% | 97.1% | 95.8% | 85.5% | 82.5% | 34.7% | 90.7% | 76.7% | 64.9% | viability, T/C [16]: 45.2%; viability, T/C [17]: 15.7%; viability, T/C [18]: 9.14%; viability, T/C [19]: 1.73%; viability, T/C [20]: 3.32%; viability, T/C [21]: 2.97%; viability, T/C [22]: 1.78%; viability, T/C [23]: 0.17%; viability, T/C [24]: 0.15%; viability, T/C [25]: 0.14%; viability, T/C [26]: 0.17%; viability, T/C [27]: 0.12%; viability, T/C [28]: 0.12%; viability, T/C [29]: 0.12%; viability, T/C [30]: 0.21%
3 | Cn1ncnc1[C@H]1c2n[nH]c(=O)c3cc(F)cc(c23)N[C@@H]1c1ccc(F)cc1 + COc1cc2c(cc1O)CCNC21CSC2c3c(OC(C)=O)c(C)c4c(c3C(COC1=O)N1C(O)C3Cc5cc(C)c(OC)c(O)c5C(C21)N3C)OCO4 | 5.84 | 6.16 | 7.01 | > 8.02 | > 8.02 | 82% | 91.7% | 97.9% | 72.4% | 70.9% | 19.1% | 97.5% | 80.7% | 91.9% | 73.3% | 40.8% | 14% | 48.5% | 53.7% | 51% | viability, T/C [16]: 36.6%; viability, T/C [17]: 15.2%; viability, T/C [18]: 11.3%; viability, T/C [19]: 10%; viability, T/C [20]: 4.38%; viability, T/C [21]: 4.05%; viability, T/C [22]: 2.68%; viability, T/C [23]: 1%; viability, T/C [24]: 0.14%; viability, T/C [25]: 0.15%; viability, T/C [26]: 0.14%; viability, T/C [27]: 0.55%; viability, T/C [28]: 0.12%; viability, T/C [29]: 0.13%; viability, T/C [30]: 0.18%
